# Measured values published in publication PMC7413254 (Nature Communications, 2020).
# Read-outs that look alike come from different tables or passages of the source.
# How the values were obtained:
# PfNT1 = target: T1, PfNT1 (Plasmodium falciparum, UniProt Q8IDM6); experiment: [3H]CQ uptake into Xenopus oocytes (ion and membrane-potential dependence, Supplementary Fig. 2); format: cell-based
# T1 construct: expressed in transfected cells; host or cells: Xenopus laevis oocytes (stage V-VI), cRNA-injected
# C2^GC03 parasites = experiment: P. falciparum proliferation assay; format: cell-based; conditions: Plasmodium falciparum
# Experimental: (§1) Parasite proliferation was measured in 96-well plates using a fluorescent DNA-intercalating dye[68],[69]. Synchronous ring-stage parasite cultures (~1% haematocrit and 1% parasitaemia) were incubated with different concentrations of the test compound for 72 h at 37 °C and under reduced O2 conditions. The assay was terminated by freezing and thawing the samples, after which 100 μL of SYBR Safe DNA Gel Stain (Molecular Probes; 0.2 μL/mL) in a lysis buffer (20 mM Tris-HCl, 5 mM EDTA, 0.008% (w/v) saponin and 0.08% (v/v) Triton X-100; pH 7.5) was added to each well. The fluorescence from each well was measured using a Tecan Infinite M1000 PRO microplate reader (excitation wavelength 490 nm; emission wavelength 520 nm). The fluorescence values for the wells containing the highest concentration of the compound were averaged and this value was then subtracted from each of the well values obtained for that 96-well plate. The level of parasite proliferation in the presence of each compound concentration was expressed as a percentage of the proliferation measured in the absence of the compound. The IC50s were determined in SigmaPlot Windows Version 11.0 by a least-squares fit of the equation y = a/[1 + ([compound]/IC50)^c] to the data, where y is the percent parasite proliferation, a is the maximum change in the percent parasite proliferation, and c is a fitted constant. In all cases, five independent experiments were performed (on different days), and within each experiment measurements were averaged from three replicates.
# Dd2 strain = experiment: P. falciparum proliferation assay; format: cell-based, Plasmodium falciparum
# Experimental: as §1
# C6^7G8 parasites = experiment: P. falciparum proliferation assay; format: cell-based, Plasmodium falciparum
# Experimental: as §1
# 7G8 strain = experiment: P. falciparum proliferation assay; format: cell-based, Plasmodium falciparum
# Experimental: as §1
# 3D7 strain = experiment: P. falciparum proliferation assay; format: cell-based, Plasmodium falciparum
# Experimental: as §1
# C4^Dd2 parasites = experiment: P. falciparum proliferation assay; format: cell-based, Plasmodium falciparum
# Experimental: as §1
# PfCRT^Ecu1110 = experiment: cell-based; format: cell-based, Plasmodium falciparum; conditions: for PfCRT-mediated [3H]CQ transport, trans-stimulation (% PfCRTEcu1110 control): PfCRTEcu1110 oocytes, normalised to oocyte type control; for [3H]CQ transport (% PfCRTDd2 control), trans-stimulation, PfCRTEcu1110: PfCRT-mediated component (background subtracted), sheet title says normalised to PfCRTDd2 control, mean ± SEM, SEM
# Summary of the method: (§2)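 Transport measured in Xenopus oocytes expressing the transporters, 1.5 h at 27.5 °C in ND96 pH 5.5 unless noted. For trans-stimulation, VF-6 injected in 25 nL ND96 at pH 5.0–7.0 or Na^+-free (choline) buffer; intracellular levels based on ~400 nL oocyte volume. Ten oocytes per treatment, ≥4 experiments.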
# PfCRT^Dd2 = experiment: cell-based; format: cell-based, Plasmodium falciparum; conditions: for PfCRT-mediated [3H]CQ transport, trans-stimulation (% PfCRTDd2 control): PfCRTDd2 oocytes, normalised to oocyte type control; for [3H]CQ transport (% PfCRTDd2 control), trans-stimulation, PfCRTDd2: PfCRT-mediated component (background subtracted), mean ± SEM, SEM
# Summary of the method: as §2
# [1] = Plasmodium falciparum, DD2, 72 h, read-out: IC50 (nM), parasite proliferation, + 1 μM VP, SEM
# [2] = Plasmodium falciparum, 72 h, read-out: IC50 (nM), parasite proliferation, + 1 μM VP, SEM
# [3] = [test solute]i = 5 mM (intracellular)
# [4] = [test solute]i = 45 mM (intracellular; 30 mM for some solutes due to solubility)
# [5] = [test solute]i = 5 mM (injected)
# [6] = [test solute]i = 45 mM (30 mM for some solutes due to solubility)
# T1 sequence (Q8IDM6 whole entry): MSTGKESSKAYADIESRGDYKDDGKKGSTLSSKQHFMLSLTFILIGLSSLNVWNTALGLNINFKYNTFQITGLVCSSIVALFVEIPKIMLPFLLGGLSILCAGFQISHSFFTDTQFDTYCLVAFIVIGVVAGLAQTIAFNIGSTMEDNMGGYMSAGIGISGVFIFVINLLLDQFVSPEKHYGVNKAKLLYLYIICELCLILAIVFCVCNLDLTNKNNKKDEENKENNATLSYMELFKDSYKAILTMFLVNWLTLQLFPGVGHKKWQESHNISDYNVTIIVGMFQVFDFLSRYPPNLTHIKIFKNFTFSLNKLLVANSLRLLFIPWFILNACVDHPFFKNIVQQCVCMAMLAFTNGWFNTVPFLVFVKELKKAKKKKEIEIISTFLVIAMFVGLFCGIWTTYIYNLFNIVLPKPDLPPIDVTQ
compound,measurement,setting,value
"CCN(CC)CCCC(C)Nc1ccnc2cc(Cl)ccc12 (centres unmarked) [CQ, chloroquine, reference compound]","[3H]CQ transport, PfNT1","PfNT1; 0 mM Ca2+, Experiment 1",3.03 % PfCRTDd2 control
same,"[3H]CQ transport, PfNT1","PfNT1; 0 mM Ca2+, Experiment 2",3.55 % PfCRTDd2 control
same,"[3H]CQ transport, PfNT1","PfNT1; 0 mM Ca2+, Experiment 3",3.65 % PfCRTDd2 control
same,"[3H]CQ transport, PfNT1","PfNT1; 0 mM Ca2+, Experiment 4",3.28 % PfCRTDd2 control
same,"[3H]CQ transport, PfNT1","PfNT1; 0 mM Cl-, Experiment 1",3.68 % PfCRTDd2 control
same,"[3H]CQ transport, PfNT1","PfNT1; 0 mM Cl-, Experiment 2",3.72 % PfCRTDd2 control
same,"[3H]CQ transport, PfNT1","PfNT1; 0 mM Cl-, Experiment 3",4.16 % PfCRTDd2 control
same,"[3H]CQ transport, PfNT1","PfNT1; 0 mM Cl-, Experiment 4",3.75 % PfCRTDd2 control
same,"[3H]CQ transport, PfNT1","PfNT1; 0 mM Na+, Experiment 1",3.67 % PfCRTDd2 control
same,"[3H]CQ transport, PfNT1","PfNT1; 0 mM Na+, Experiment 2",3.32 % PfCRTDd2 control
same,"[3H]CQ transport, PfNT1","PfNT1; 0 mM Na+, Experiment 3",3.62 % PfCRTDd2 control
same,"[3H]CQ transport, PfNT1","PfNT1; 0 mM Na+, Experiment 4",3.15 % PfCRTDd2 control
same,"[3H]CQ transport, PfNT1","PfNT1; 1 mM Ca2+, Experiment 1",4.25 % PfCRTDd2 control
same,"[3H]CQ transport, PfNT1","PfNT1; 1 mM Ca2+, Experiment 2",3.56 % PfCRTDd2 control
same,"[3H]CQ transport, PfNT1","PfNT1; 1 mM Ca2+, Experiment 3",3.56 % PfCRTDd2 control
same,"[3H]CQ transport, PfNT1","PfNT1; 1 mM Ca2+, Experiment 4",4.24 % PfCRTDd2 control
same,"[3H]CQ transport, PfNT1","PfNT1; 3 mM Ca2+, Experiment 1",3.29 % PfCRTDd2 control
same,"[3H]CQ transport, PfNT1","PfNT1; 3 mM Ca2+, Experiment 2",3.28 % PfCRTDd2 control
same,"[3H]CQ transport, PfNT1","PfNT1; 3 mM Ca2+, Experiment 3",3.36 % PfCRTDd2 control
same,"[3H]CQ transport, PfNT1","PfNT1; 3 mM Ca2+, Experiment 4",3.62 % PfCRTDd2 control
same,"[3H]CQ transport, PfNT1","PfNT1; 5 mM Ca2+, Experiment 1",3.95 % PfCRTDd2 control
same,"[3H]CQ transport, PfNT1","PfNT1; 5 mM Ca2+, Experiment 2",3.75 % PfCRTDd2 control
same,"[3H]CQ transport, PfNT1","PfNT1; 5 mM Ca2+, Experiment 3",3.96 % PfCRTDd2 control
same,"[3H]CQ transport, PfNT1","PfNT1; 5 mM Ca2+, Experiment 4",3.37 % PfCRTDd2 control
same,IC50,"C2^GC03 parasites; 72 h, read-out: IC50 (nM), parasite proliferation, + 1 μM VP, SEM",26 ± 1.3 nM
same,IC50,"C2^GC03 parasites; C2GC03, 72 h, 37 °C, SYBR Safe, mean ± SEM, n = 5, read-out: IC50 (nM), parasite proliferation, Control",27 ± 1.6 nM
same,IC50,Dd2 strain; [1],25 ± 1 nM
same,IC50,C6^7G8 parasites; [2],25 ± 0.2 nM
same,IC50,"C6^7G8 parasites; Plasmodium falciparum, C67G8, 72 h, 37 °C, SYBR Safe, mean ± SEM, n = 5, read-out: IC50 (nM), parasite proliferation, Control",87 ± 2.1 nM
same,IC50,7G8 strain; [2],28 ± 1.6 nM
same,IC50,"7G8 strain; Plasmodium falciparum, 72 h, read-out: IC50 (nM), parasite proliferation, Control, SEM",94 ± 4.4 nM
same,IC50,"3D7 strain; Plasmodium falciparum, 3D7, 72 h, 37 °C, SYBR Safe, mean ± SEM, n = 5, read-out: IC50 (nM), parasite proliferation, Control",25 ± 1.1 nM
same,IC50,"3D7 strain; Plasmodium falciparum, 3D7, 72 h, read-out: IC50 (nM), parasite proliferation, + 1 μM VP, SEM",24 ± 0.9 nM
same,IC50,C4^Dd2 parasites; [1],26 ± 0.1 nM
N[C@@H](Cc1c[nH]cn1)C(=O)O [L-histidine],"PfCRT-mediated [3H]CQ transport, trans-stimulation (% PfCRTEcu1110 control)",PfCRT^Ecu1110; [3],98 ± 2.8 % PfCRTEcu1110 control
same,"PfCRT-mediated [3H]CQ transport, trans-stimulation (% PfCRTEcu1110 control)",PfCRT^Ecu1110; [4],97 ± 4.1 % PfCRTEcu1110 control
same,"[3H]CQ transport (% PfCRTDd2 control), trans-stimulation, PfCRTEcu1110",PfCRT^Ecu1110; [5],33 ± 2.2 % PfCRTEcu1110 control
same,"[3H]CQ transport (% PfCRTDd2 control), trans-stimulation, PfCRTEcu1110",PfCRT^Ecu1110; [6],32 ± 1.6 % PfCRTEcu1110 control
same,"PfCRT-mediated [3H]CQ transport, trans-stimulation (% PfCRTDd2 control)",PfCRT^Dd2; [3],99 ± 3.9 % PfCRTDd2 control
same,"PfCRT-mediated [3H]CQ transport, trans-stimulation (% PfCRTDd2 control)",PfCRT^Dd2; [4],95 ± 2.5 % PfCRTDd2 control
same,"[3H]CQ transport (% PfCRTDd2 control), trans-stimulation, PfCRTDd2",PfCRT^Dd2; [5],99 ± 3.9 % PfCRTDd2 control
same,"[3H]CQ transport (% PfCRTDd2 control), trans-stimulation, PfCRTDd2",PfCRT^Dd2; [6],95 ± 2.5 % PfCRTDd2 control
CSCC[C@H](N)C(=O)O [L-methionine],"PfCRT-mediated [3H]CQ transport, trans-stimulation (% PfCRTEcu1110 control)",PfCRT^Ecu1110; [3],96 ± 1.4 % PfCRTEcu1110 control
same,"PfCRT-mediated [3H]CQ transport, trans-stimulation (% PfCRTEcu1110 control)",PfCRT^Ecu1110; [4],98 ± 4.6 % PfCRTEcu1110 control
same,"[3H]CQ transport (% PfCRTDd2 control), trans-stimulation, PfCRTEcu1110",PfCRT^Ecu1110; [5],32 ± 1.1 % PfCRTEcu1110 control
same,"[3H]CQ transport (% PfCRTDd2 control), trans-stimulation, PfCRTEcu1110",PfCRT^Ecu1110; [6],33 ± 1.3 % PfCRTEcu1110 control
same,"PfCRT-mediated [3H]CQ transport, trans-stimulation (% PfCRTDd2 control)",PfCRT^Dd2; [3],98 ± 4.1 % PfCRTDd2 control
same,"PfCRT-mediated [3H]CQ transport, trans-stimulation (% PfCRTDd2 control)",PfCRT^Dd2; [4],97 ± 3.5 % PfCRTDd2 control
same,"[3H]CQ transport (% PfCRTDd2 control), trans-stimulation, PfCRTDd2",PfCRT^Dd2; [5],98 ± 4.1 % PfCRTDd2 control
same,"[3H]CQ transport (% PfCRTDd2 control), trans-stimulation, PfCRTDd2",PfCRT^Dd2; [6],97 ± 3.5 % PfCRTDd2 control
"CC(C)(C)NC(=O)[C@@H]1C[C@@H]2CCCC[C@@H]2CN1C[C@@H](O)[C@H](Cc1ccccc1)NC(=O)[C@H](CC(N)=O)NC(=O)c1ccc2ccccc2n1 [Saquinavir, saquinavir, reference compound]",IC50,"C2^GC03 parasites; 72 h, read-out: IC50 (μM), parasite proliferation, + 1 μM VP, SEM",5100 ± 200 nM
same,IC50,"C2^GC03 parasites; C2GC03, 72 h, 37 °C, SYBR Safe, mean ± SEM, n = 5, read-out: IC50 (μM), parasite proliferation, Control",6800 ± 400 nM
same,IC50,"Dd2 strain; Plasmodium falciparum, DD2, 72 h, read-out: IC50 (μM), parasite proliferation, Control, SEM",3300 ± 200 nM
same,IC50,"Dd2 strain; read-out: IC50 (μM), parasite proliferation, + 1 μM VP, Dd2, + 1 μM verapamil, 72 h, mean ± SEM, n = 5",2100 ± 300 nM
same,IC50,"C6^7G8 parasites; Plasmodium falciparum, C67G8, 72 h, 37 °C, SYBR Safe, mean ± SEM, n = 5, read-out: IC50 (μM), parasite proliferation, Control",4200 ± 400 nM
same,IC50,"C6^7G8 parasites; read-out: IC50 (μM), parasite proliferation, + 1 μM VP, C67G8, + 1 μM verapamil, 72 h, mean ± SEM, n = 5",2300 ± 300 nM
same,IC50,"7G8 strain; Plasmodium falciparum, 72 h, read-out: IC50 (μM), parasite proliferation, Control, SEM",4700 ± 100 nM
same,IC50,"7G8 strain; read-out: IC50 (μM), parasite proliferation, + 1 μM VP, 7G8, + 1 μM verapamil, 72 h, mean ± SEM, n = 5",2200 ± 100 nM
same,IC50,"3D7 strain; Plasmodium falciparum, 3D7, 72 h, 37 °C, SYBR Safe, mean ± SEM, n = 5, read-out: IC50 (μM), parasite proliferation, Control",7400 ± 300 nM
same,IC50,"3D7 strain; read-out: IC50 (μM), parasite proliferation, + 1 μM VP, SEM",5900 ± 600 nM
same,IC50,"C4^Dd2 parasites; Plasmodium falciparum, DD2, C4Dd2, 72 h, 37 °C, SYBR Safe, mean ± SEM, n = 5, read-out: IC50 (μM), parasite proliferation, Control",3500 ± 500 nM
same,IC50,"C4^Dd2 parasites; read-out: IC50 (μM), parasite proliferation, + 1 μM VP, C4Dd2, + 1 μM verapamil, 72 h, mean ± SEM, n = 5",1900 ± 100 nM
